This is an account of results in patent US12655139B2, “Isoxazolidines as RIPK1 inhibitors and use thereof” (SANOFI, priority 2020, dated 2026).

Read-outs that look alike come from different tables or passages of the source. Some results are limits rather than exact numbers.

In assay [1] the test system is U937 cells. Briefly: Cellular assay in U937 cells on cell death (necroptosis), TNFα/zVAD.fmk. It is filed as cell-based. Particulars: read-out: U937 IC50. The procedure, abridged: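 U937 cells with 100 ng/ml TNFα plus 50 μM zVAD.fmk (pre-addition suspension levels) received 10 compound concentrations (10 μM–0.26 nM or 1 μM–0.07 nM) for 18–24 h at 37 °C. Live cells were read by MTS formazan absorbance at 490 nm after 4 h. % inhibition is relative to the maximal value without TNFα/zVAD.fmk.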

The target of assay [2] is T1, hRIPK1 (aa 1-375) fusion protein (Homo sapiens, UniProt Q13546).
T1 construct: hRIPK1 (aa 1-375) fusion protein
T1 sequence (Q13546 1-375): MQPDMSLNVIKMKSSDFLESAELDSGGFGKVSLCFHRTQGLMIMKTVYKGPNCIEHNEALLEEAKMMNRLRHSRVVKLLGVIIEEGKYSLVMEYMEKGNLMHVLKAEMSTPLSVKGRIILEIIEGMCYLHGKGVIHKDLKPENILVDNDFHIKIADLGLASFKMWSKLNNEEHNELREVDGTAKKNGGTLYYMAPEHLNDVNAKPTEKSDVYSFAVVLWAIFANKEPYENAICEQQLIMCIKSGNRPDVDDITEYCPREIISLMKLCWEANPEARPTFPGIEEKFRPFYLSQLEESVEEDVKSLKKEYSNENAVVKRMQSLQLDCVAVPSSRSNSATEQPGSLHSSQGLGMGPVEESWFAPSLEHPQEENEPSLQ
The assay can be described thus: ADP-Glo kinase assay, RIPK1 autophosphorylation. It is filed as biochemical. Particulars: Table 1. On the procedure:
Evaluation of Receptor-Interacting Protein Kinase 1 Inhibition.
The catalytic activity of RIPK1 was measured by monitoring the conversion of Adenosine triphosphate (ATP) to Adenosine diphosphate (ADP) due to autophosphorylation using an ADP-Glo kinase kit (Promega, catalog no. V9104).
After another 240 minutes incubation at room temperature, 5 μl Promega ADP-Glo reagent I were added to quench the reaction and deplete unconsumed ATP. After an incubation period of 30 minutes, 10 μl Promega ADP-Glo detection reagent II were added resulting in conversion of ADP to ATP, which generates a light-reaction between luciferase and luciferin. Luminescence was quantified after 30 minutes with a Pherastar FS (BMG LABTECH, Ortenberg).
The adjustment was obtained by nonlinear regression using the Levenberg Marquardt algorithm.
(In general: ADP-Glo first removes unused ATP, then detects ADP through luciferase.)

For the molecule `Cc1cncc([C@@H]2CCON2C(=O)C2CCN(c3ncc(C)c(C(N)=O)n3)CC2)n1` [Ex. 097], the IC50 (in general, the concentration needed to halve the response being measured) in assay [1] (Homo sapiens, U-937, Table 2) worked out at 41.5 nM; in assay [2], 24 nM.
Turning to `Cc1cnc(N2CCC(C(=O)N3OCC[C@H]3c3cncc(F)c3)CC2)nc1C(N)=O` [Ex. 098], the half-inhibitory concentration (IC50) in assay [1] (Homo sapiens, U-937, Table 2) was determined as 32.5 nM; in assay [2], 13.7 nM.
The corresponding values for `Cc1cnc(N2CCC(C(=O)N3OCC[C@H]3c3cnccn3)CC2)nc1C(N)=O` [Ex. 99] are 54 nM and 22.3 nM.
The corresponding values for `CSc1nc(N2CCC(C(=O)N3OCC[C@H]3c3cncc(C#N)c3)CC2)ncc1F` [Ex. 103, 5-[(3S)-2-[1-(5-Fluoro-4-methylsulfanyl-pyrimidin-2-yl)piperidine-4-carbonyl]isoxazolidin-3-yl]pyridine-3-carbonitrile] are 1.44 nM and 17.5 nM.
Take `C[S+]([O-])c1nc(N2CCC(C(=O)N3OCC[C@H]3c3cncc(C#N)c3)CC2)ncc1F` (some centres unmarked) [Ex. 104]: the IC50 in assay [1] (Homo sapiens, U-937, Table 2) is 736 nM; in assay [2] it was 13.4 nM.
The corresponding values for `CS(=O)(=O)c1nc(N2CCC(C(=O)N3OCC[C@H]3c3cncc(C#N)c3)CC2)ncc1F` [Ex. 105] are 7940 nM and 11.2 nM.
The matching figures for `N#Cc1ccc([C@@H]2CCON2C(=O)C2CCN(c3ncc(F)c(C(N)=O)n3)CC2)nc1` [Ex. 106]: 548 nM and 42.9 nM.
For the molecule `N#Cc1ccc([C@@H]2CCON2C(=O)C2CCN(c3cc(C(N)=O)ncn3)CC2)nc1` [Ex. 107], the IC50 was 7520 nM in assay [1] (Homo sapiens, U-937, Table 2) and 364 nM in assay [2].
The corresponding values for `N#Cc1ccc([C@@H]2CCON2C(=O)C2CCN(c3nccc(C(N)=O)n3)CC2)nc1` [Ex. 108] are 1010 nM and 81.6 nM.
On to `Cc1cc([C@@H]2CCON2C(=O)C2CCN(c3cc(C(N)=O)ncn3)CC2)co1` [Ex. 109], for which the IC50 turned out to be 5.31 nM in assay [1] (Homo sapiens, U-937, Table 2) and 19.3 nM in assay [2].
The matching figures for `N#Cc1cncc([C@@H]2CCON2C(=O)C2CCN(c3ncc(F)c(C#N)n3)CC2)c1` [Ex. 111]: 11.6 nM and 28.2 nM.
In the case of `Cc1nsc(N2CCC(C(=O)N3OCC[C@H]3c3cncc(C#N)c3)CC2)n1` [Ex. 113], the IC50 in assay [1] (Homo sapiens, U-937, Table 2) was determined as 773 nM; in assay [2] it was 122 nM.
The corresponding values for `COc1nc(N2CCC(C(=O)N3OCC[C@H]3c3cncc(C#N)c3)CC2)ncc1F` [Ex. 114] are 7.85 nM and 14 nM.
The matching figures for `N#Cc1cncc([C@@H]2CCON2C(=O)C2(F)CCN(c3nccc(C(N)=O)n3)CC2(F)F)c1` (some centres unmarked) [Ex. 115]: 62.7 nM and 24.7 nM.
The corresponding values for `COc1nc(N2CCC(C(=O)N3OCC[C@H]3c3cncc(C)n3)CC2)ncc1F` [Ex. 116] are 4.5 nM and 21.4 nM.
`N#Cc1cncc([C@@H]2CCON2C(=O)C2CCN(c3cnc(Cl)nc3C(=O)O)CC2)c1` [Ex. 121]: the IC50 in assay [1] (Homo sapiens, U-937, Table 2) was 4440 nM; in assay [2], above 33000 nM.
In the case of `N#Cc1cncc([C@@H]2CCON2C(=O)C2CCN(c3ncc(F)c(C(N)=O)n3)CC2F)c1` (some centres unmarked) [Ex. 154], the half-maximal inhibitory concentration (IC50) in assay [1] (Table 2) is 38.8 nM; in assay [2], 21.9 nM.
The corresponding values for `N#Cc1cncc([C@@H]2CCON2C(=O)C2CCN(c3ncc(F)c(C(N)=O)n3)CC2F)c1` (some centres unmarked) [Ex. 155] are 4.06 nM and 16.5 nM.
As to `N#Cc1cncc([C@@H]2CCON2C(=O)C2CCN(c3ccnc(C(N)=O)n3)CC2)c1` [Ex. 156], the half-maximal inhibitory concentration (IC50) in assay [1] (Homo sapiens, U-937, Table 2) came to 927 nM; in assay [2], 297 nM.
Take `N#Cc1cncc([C@@H]2CCON2C(=O)C2CCN(c3ccnc(Br)n3)CC2)c1` [Ex. 157]: the 50% inhibitory concentration (IC50) in assay [1] (Homo sapiens, U-937, Table 2) worked out at 114 nM; in assay [2], 43.9 nM.
`N#Cc1cncc([C@@H]2CCON2C(=O)C2CCN(c3cc(Cl)ncn3)CC2)c1` [Ex. 159]: the IC50 in assay [1] (Homo sapiens, U-937, Table 2) was found to be 77.1 nM; in assay [2] it was 31.8 nM.
As for `O=C(O)c1nc(Cl)ncc1N1CCC(C(=O)N2OCC[C@H]2c2cnccn2)CC1` [Ex. 164], the half-maximal inhibitory concentration (IC50) stood at 1970 nM in assay [1] (Homo sapiens, U-937, Table 2) and 17500 nM in assay [2].
The matching figures for `N#Cc1cncc([C@@H]2CCON2C(=O)C2CCN(c3cc(Br)ncn3)CC2)c1` [Ex. 165]: 52.7 nM and 25 nM.
The matching figures for `N#Cc1cc([C@@H]2CCON2C(=O)C2CCN(c3ncc(F)c(C(N)=O)n3)CC2)cs1` [Ex. 166]: 59.7 nM and 37.2 nM.
The corresponding values for `N#Cc1cc([C@@H]2CCON2C(=O)C2CCN(c3ncc(F)c(C(N)=O)n3)CC2)co1` [Ex. 167] are 48 nM and 31.1 nM.
`N#Cc1cc([C@@H]2CCON2C(=O)C2CCN(c3nccc(C(N)=O)n3)CC2)cs1` [Ex. 168]: the IC50 turned out to be 79.2 nM in assay [1] (Homo sapiens, U-937, Table 2) and 45.4 nM in assay [2].
For `Cc1nc([C@@H]2CCON2C(=O)C2CCN(c3ncc(F)c(C(N)=O)n3)CC2)cs1` [Ex. 170], the IC50 stood at 16.5 nM in assay [1] (Homo sapiens, U-937, Table 2) and 21.7 nM in assay [2].
Take `N#Cc1cc([C@@H]2CCON2C(=O)C2CCN(c3nccc(C(N)=O)n3)CC2)co1` [Ex. 171]: the IC50 in assay [1] (Homo sapiens, U-937, Table 2) turned out to be 85.8 nM; in assay [2] it was 51.9 nM.
The corresponding values for `NC(=O)c1nc(N2CCC(C(=O)N3OCC[C@H]3c3ccccn3)CC2)ncc1F` [Ex. 175] are 44.6 nM and 22.3 nM.
Take `N#Cc1cc([C@@H]2CCON2C(=O)C2CCN(c3ncc(F)c(C(N)=O)n3)CC2)cnn1` [Ex. 178]: the IC50 in assay [1] (Homo sapiens, U-937, Table 2) is 1300 nM; in assay [2], 112 nM.
In the case of `Cc1nc(Cl)nc(N2CCC(C(=O)N3OCC[C@H]3c3cnccn3)CC2)n1` [Ex. 180], the IC50 came out at 1050 nM in assay [1] (Homo sapiens, U-937, Table 2) and 32 nM in assay [2].
The corresponding values for `Nc1nc(Cl)nc(N2CCC(C(=O)N3OCC[C@H]3c3cnccn3)CC2)n1` [Ex. 184] are 1.79 nM and 3.26 nM.
In the case of `N#Cc1nc([C@@H]2CCON2C(=O)C2CCN(c3ncc(F)c(C(N)=O)n3)CC2)cs1` [Ex. 189], the IC50 in assay [1] (Homo sapiens, U-937, Table 2) amounted to 102 nM; in assay [2], 30.3 nM.
Turning to `N#Cc1cncc([C@@H]2CCON2C(=O)C2CCN(c3nccc(C(N)=O)n3)CC2)c1` [compound 4], the half-maximal inhibitory concentration (IC50) in assay [1] (Homo sapiens, U-937, Table 2) was 22.1 nM; in assay [2] it was 23.8 nM.
Turning to `Cc1cncc([C@@H]2CCON2C(=O)C2CCN(c3nccc(C(N)=O)n3)CC2)n1` [compound 44], the IC50 was 8.47 nM in assay [1] (Homo sapiens, U-937, Table 2) and 9.31 nM in assay [2].
The corresponding values for `N#Cc1cncc([C@@H]2CCON2C(=O)C2CCN(c3ncc(F)c(C(N)=O)n3)CC2)c1` [compound 68] are 3.25 nM and 14.7 nM.
For `NC(=O)c1nc(N2CCC(C(=O)N3OCC[C@H]3c3cnccn3)CC2)ncc1F` [compound 75], the IC50 was 2.73 nM in assay [1] (Homo sapiens, U-937, Table 2) and 8.46 nM in assay [2].
On to `CC1(CCNC(=O)c2ccnc(N3CCC(C(=O)N4OCC[C@H]4c4cncc(C#N)c4)CC3)n2)CC1` [compound 77, 2-[4-[(3S)-3-(5-cyano-3-pyridyl)isoxazolidine-2-carbonyl]-1-piperidyl]-N-[2-(1-methylcyclo-propyl)ethyl]pyrimidine-4-carboxamide], for which the IC50 in assay [1] (Homo sapiens, U-937, Table 2) was found to be 38.5 nM; in assay [2], 28.1 nM.
For `CC(C)(C)OC(=O)N1CC(NC(=O)c2ccnc(N3CCC(C(=O)N4OCC[C@H]4c4cncc(C#N)c4)CC3)n2)C1` [compound 78, Tert-butyl 3-[[2-[4-[(3S)-3-(5-cyano-3-pyridyl)isoxazolidine-2-carbonyl]-1-piperidyl]pyrimidine-4-carbonyl]amino]azetidine-1-carboxylate], the IC50 worked out at 316 nM in assay [1] (Homo sapiens, U-937, Table 2) and 52.9 nM in assay [2].
The matching figures for `Cc1cnc([C@@H]2CCON2C(=O)C2CCN(c3ncc(F)c(C(N)=O)n3)CC2)cn1` [compound 90, 5-fluoro-2-[4-[(3S)-3-(5-methylpyrazin-2-yl)isoxazolidine-2-carbonyl]-1-piperidyl]pyrimidine-4-carboxamide]: 38.1 nM and 12.6 nM.
Turning to `Cc1cnc([C@@H]2CCON2C(=O)C2CCN(c3cc(C#N)ncn3)CC2)cn1` [compound 91, 6-[4-[(3S)-3-(5-methylpyrazin-2-yl)isoxazolidine-2-carbonyl]-1-piperidyl]pyrimidine-4-carbonitrile], the half-inhibitory concentration (IC50) was 183 nM in assay [1] (Homo sapiens, U-937, Table 2) and 14.9 nM in assay [2].
The matching figures for `Cc1cc([C@@H]2CCON2C(=O)C2CCN(c3nccc(C(N)=O)n3)CC2)co1` [compound 110, (S)-2-(4-(3-(5-methylfuran-3-yl)isoxazolidine-2-carbonyl)piperidin-1-yl)pyrimidine-4-carboxamide]: 1.69 nM and 17.3 nM.
For `N#Cc1cncc([C@@H]2CCON2C(=O)C2CCN(c3ncc(F)c(C(N)=O)n3)CC2)n1` [compound 119], the IC50 was 5.55 nM in assay [1] (Homo sapiens, U-937, Table 2) and 21.1 nM in assay [2].
